According to patent US10688197B2, “Non-alcoholic fatty liver regulator 14-3-3 protein” (Korea University Research and Business Foundation, priority 2015, dated 2020):

What was measured:
[1] = biological target: T1, PPARγ2 S273A mutant (Homo sapiens, UniProt P37231, S273A); test: aP2 promoter luciferase reporter with PPARγ2 S273A mutant in HEK-293T cells; assay type: cell-based; settings: overexpression of 14-3-3β or 14-3-3γ, FIG. 4C/4D
T1 construct: expressed in transfected cells; host or cells: HEK-293T
T1 sequence (P37231 1-505 S273A): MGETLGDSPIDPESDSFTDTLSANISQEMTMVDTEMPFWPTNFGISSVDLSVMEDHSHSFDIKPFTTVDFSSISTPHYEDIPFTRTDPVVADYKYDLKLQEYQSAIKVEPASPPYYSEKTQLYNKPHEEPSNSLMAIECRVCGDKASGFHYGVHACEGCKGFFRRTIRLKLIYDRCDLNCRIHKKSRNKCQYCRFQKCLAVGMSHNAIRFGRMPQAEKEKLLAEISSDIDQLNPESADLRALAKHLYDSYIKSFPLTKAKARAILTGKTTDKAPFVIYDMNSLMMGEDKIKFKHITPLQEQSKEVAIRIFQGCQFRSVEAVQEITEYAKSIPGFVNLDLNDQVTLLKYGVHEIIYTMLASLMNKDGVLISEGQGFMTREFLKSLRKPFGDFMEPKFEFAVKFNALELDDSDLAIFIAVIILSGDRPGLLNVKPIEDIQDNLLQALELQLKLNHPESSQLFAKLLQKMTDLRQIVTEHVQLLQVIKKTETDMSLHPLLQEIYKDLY
Protocol: In addition, HEK-293T cells were seeded in a 12-well plate at a density of 1×10^5 cells per each well, and then transfected with an aP2 promoter construct (0.5 μg), Flag-PPARγ2 (S112A) DNA (0.5 μg) or Flag-PPARγ2 (S273A) DNA (0.5 μg), and mGST-14-3-3β DNA (0.5 μg) or mGST-14-3-3γ DNA (0.5 μg) using an E-fection plus reagent (Lugen). A ratio of DNA to the E-fection plus reagent was 1:2, and this method was performed according to a manufacturer's manual. The corresponding cells were washed with ice-cold PBS, and lysed using 80 μl/well of a reporter lysis buffer (Promega, Madison, Wis.), and the lysed cells were centrifuged at 10,000×g and 4° C. for 10 minutes to collect a supernatant, and luciferase activity was measured. As an instrument, Luminometer 20/20n (Turner Biosystems, Sunnyvale, Calif.) was used. For normalization, the cells were cotransfected with pSV40-β-galactosidase. For the collected supernatant, β-galactosidase activity was measured and the luciferase activity was revised, and the obtained values were plotted. At this time, a β-galactosidase enzyme analysis system (Promega, Madison, Wis.) was used, and analysis was performed using a DU530 spectrophotometer (Beckman Instruments, Palo Alto, Calif.).

[2] = test system: primary mouse hepatocytes; test: mRNA expression by real-time PCR in primary mouse hepatocytes; assay type: cell-based; settings: for mRNA expression of SREBP-1c and FAT/CD36: overexpression, oleic acid, FIG. 7B
Protocol: HepG2 cells and primary mouse hepatocytes were separately seeded in a 6-well plate at a density of 4×10^5 cells per each well, and then treated with 200 μM of oleic acid (OA) for 72 hours. For mRNA extraction, the corresponding cells were lysed with 1 ml/well of TRIzol (Invitrogen), 200 μl of chloroform was added thereto and mixed well, the resultant cells were maintained at room temperature for 5 minutes and then centrifuged at 12,000×g and 4° C. for 15 minutes, the obtained supernatant was mixed with 500 μl of isopropanol and then put on ice for 10 minutes, the resulting supernatant was centrifuged at 12,000×g and 4° C. for 15 minutes to remove a supernatant, and then pellets were dissolved with tertiary distilled water treated with diethyl pyrocarbonate (DEPC). 2 μg of mRNA was synthesized into cDNA using a Superscript First Strand cDNA Synthesis Kit (Bioneer, Daejeon, South Korea) and the synthesized cDNA as a template was amplified through polymerase chain reaction (PCR) using primers specific to PPARγ2, 14-3-3β, 14-3-3γ, SREBP-1c, SCD-1, ACC, FABP, FAT/CD36, and β-actin of humans, and was amplified through real-time PCR using primers specific to PPARγ2, 14-3-3β, 14-3-3γ, SREBP-1c, FAT/CD36, and GAPDH of mice. β-actin and GAPDH were used as controls to see whether mRNAs of the respective cells were compared in the same amount.
HepG2 cells were seeded in a 6-well plate at a density of 4×10^5 cells per each well, and then transfected with GFP-14-3-3β DNA (4 μg) or GFP-14-3-3γ DNA (4 μg) using an E-fection plus reagent (Lugen). A ratio of DNA to the E-fection plus reagent was 1:2, and this method was performed according to a manufacturer's manual. After transfection, the cells were treated with 200 μM of oleic acid (OA) for 72 hours, and for mRNA extraction, the corresponding cells were lysed with 1 ml/well of TRIzol (Invitrogen), 200 μl of chloroform was added thereto and mixed well, the resultant cells were maintained at room temperature for 5 minutes and then centrifuged at 12,000×g and 4° C. for 15 minutes, the obtained supernatant was mixed with 500 μl of isopropanol and then put on ice for 10 minutes, and the resulting supernatant was centrifuged at 12,000×g and 4° C. for 15 minutes to remove a supernatant, and then pellets were dissolved with tertiary distilled water treated with diethyl pyrocarbonate (DEPC). 2 μg of mRNA was synthesized into cDNA using a Superscript First Strand cDNA Synthesis Kit (Bioneer, Daejeon, South Korea) and the synthesized cDNA as a template was amplified through polymerase chain reaction (PCR) using primers specific to PPARγ2 (SEQ ID NOS: 1 and 2), 14-3-3β (SEQ ID NOS: 3 and 4), 14-3-3γ (SEQ ID NOS: 5 and 6), SREBP-1c, FAT/CD36, and β-actin of humans, and was amplified through real-time PCR using primers specific to SREBP-1c, FAT/CD36, and GAPDH of mice. β-actin and GAPDH were used as controls to see whether mRNAs of the respective cells were compared in the same amount.

| transcriptional activity of PPARγ2 S273A mutant [1] | Molecule | mRNA expression of SREBP-1c and FAT/CD36 [2] | mRNA expression of PPARγ2 ([2]; oleic acid concentration-dependent, FIG. 6B) | mRNA expression of lipid metabolism-associated genes (PPARγ2 target genes) ([2]; oleic acid concentration-dependent, FIG. 6D) | mRNA expression amounts of 14-3-3β and 14-3-3γ ([2]; oleic acid treatment, FIG. 6B) |
| --- | --- | --- | --- | --- | --- |
| no change | 14-3-3β: 14-3-3 isoform protein overexpressed by DNA transfection; increases the transcriptional activity of PPARγ2 by binding to PPARγ2 | further increased |  |  |  |
| no change | 14-3-3γ: 14-3-3 isoform protein overexpressed by DNA transfection; decreases the transcriptional activity of PPARγ2; proposed active ingredient | reduced |  |  |  |
|  | CCCCCCCC/C=C\CCCCCCCC(=O)O [oleic acid] |  | increased | increased | no changes |
